The values that follow come from US7507860B2 (Pfizer Inc., priority 2004, dated 2009).

Changes are numbered by the printed parent chain. Like-named read-outs stand apart in the source and are kept apart here.

By IC50 is commonly meant the concentration that inhibits the measured activity by half.

Assay [1] concerns the target T1, human androgen receptor (hAR) (Homo sapiens, UniProt P10275).
T1 construct: made in house; host or cells: baculovirus/Sf9 insect cells (crude extract)
T1 sequence (P10275 1-920): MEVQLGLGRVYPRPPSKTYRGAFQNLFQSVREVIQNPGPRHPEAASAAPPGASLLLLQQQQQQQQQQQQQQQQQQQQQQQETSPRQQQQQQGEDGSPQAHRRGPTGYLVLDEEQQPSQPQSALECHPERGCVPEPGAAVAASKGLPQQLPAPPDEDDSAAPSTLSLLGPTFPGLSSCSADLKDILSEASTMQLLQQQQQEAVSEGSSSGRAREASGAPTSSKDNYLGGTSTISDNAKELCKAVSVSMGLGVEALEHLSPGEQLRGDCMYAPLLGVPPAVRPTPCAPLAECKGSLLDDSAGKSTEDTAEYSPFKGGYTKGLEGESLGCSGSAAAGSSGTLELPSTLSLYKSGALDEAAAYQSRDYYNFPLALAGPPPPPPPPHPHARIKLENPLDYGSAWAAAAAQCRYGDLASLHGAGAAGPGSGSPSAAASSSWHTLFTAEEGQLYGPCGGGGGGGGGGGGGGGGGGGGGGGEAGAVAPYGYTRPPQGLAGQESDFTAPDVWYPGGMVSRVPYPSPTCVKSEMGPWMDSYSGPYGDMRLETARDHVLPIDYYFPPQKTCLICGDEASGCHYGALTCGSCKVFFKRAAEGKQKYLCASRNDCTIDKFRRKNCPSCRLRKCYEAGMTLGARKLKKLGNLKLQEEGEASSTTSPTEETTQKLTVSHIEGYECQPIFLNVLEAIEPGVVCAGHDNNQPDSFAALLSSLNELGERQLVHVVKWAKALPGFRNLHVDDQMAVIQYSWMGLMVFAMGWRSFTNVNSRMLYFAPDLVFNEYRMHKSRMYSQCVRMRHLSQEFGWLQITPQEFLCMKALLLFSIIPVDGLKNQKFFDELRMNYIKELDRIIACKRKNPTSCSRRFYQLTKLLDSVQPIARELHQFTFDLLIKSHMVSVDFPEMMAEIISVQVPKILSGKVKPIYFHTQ
As to the kind of experiment: Competitive binding analysis on baculovirus/Sf9 generated hAR extracts with 3H-DHT tracer. The following applies: hAR extract, 1 nM 3H-DHT, one hour at 4° C, mean of multiple tests. Put shortly:
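Baculovirus/Sf9-expressed hAR extract incubated with hydroxylapatite, 1 nM 3H-DHT and decreasing compound concentrations for 1 h at 4 °C, then washed three times to remove unbound tracer. Bound 3H-DHT compared with no-competitor maximum; affinity given as concentration inhibiting half of maximum binding, mean of multiple tests.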

The target of assay [2] is T2, androgen receptor (Homo sapiens, UniProt P10275).
T2 sequence (P10275 1-920 Q868H): T1 sequence (P10275 1-920) with Q868H
The assay can be described thus: AR antagonist cell assay (MDA-MB453-MMTV clone 54-19 luciferase reporter, 100 pM DHT). The format is cell-based. The following applies: MDA-MB453-MMTV clone 54-19, inhibition of 100 pM DHT induction, 17 hr; mean of multiple tests; read-out: AR Cell IC50. As to the method:
The compounds ability to antagonize the effects of androgen on the androgen receptor were determined in a whole cell assay as described immediately below.
Experimental Procedure for AR Antagonist Cell Assay
This cell line is a stable transfected cell line with MDA-MB453 cell background (a human breast tumor cell line expressing androgen receptor). A MMTV minimal promoter containing ARE was first cloned in front of a firefly luciferase reporter gene. Then the cascade was cloned into transfection vector pUV120puro. […] Puromycin resistant stable cell line was selected. Cell Culture Media and Reagents:
Plating medium: DMEM (phenol red free), 10% charcoal treated HyClone serum, 1% L-glutamine
Assay medium: DMEM (phenol red free), 1% charcoal treated HyClone serum, 1% L-glutamine, and 1% penicillin/streptomycin
• 1. Cells are maintained in culture medium, splitting cells when they reach 80-90% confluence • 2. To test compounds, 10,000 cells/well are plated to opaque 96 cell culture plate in 100 ul/well plating medium, culture for overnight at 37° C. in cell culture incubator • 3. […] Add 10 ul/well freshly prepared DHT (final concentration at 100 pM) to each well, incubate at 37° C. for 17 hr (overnight) • 5.
The results are reported as the mean of multiple tests as described below (the numbers of tests are indicated in the footnote). N.D. denotes that the compound was not tested.

Regarding `CCCC(Oc1ccc(C#N)c(C(F)(F)F)c1)C(=O)NCc1ccccc1C` (stereo not shown) [Example 44, 2-(4-Cyano-3-trifluoromethyl-phenoxy)-pentanoic acid-2-methyl-benzylamide], the concentration for half-maximal inhibition (IC50) in assay [1] (AR Binding IC50 (nM)) came to 42 nM; in assay [2], 37 nM.
Consider `CCCC(Oc1ccc(C#N)c(C(F)(F)F)c1)C(=O)NCc1ccc(C)cc1C` (stereo not shown) [Example 45, 2-(4-Cyano-3-trifluoromethyl-phenoxy)-pentanoic acid-2,4-dimethyl-benzylamide], for which the IC50 is 58 nM in assay [1] (read-out: AR Binding IC50) and over 1000 nM in assay [2].
The like results for `CCCC(Oc1ccc(C#N)c(C(F)(F)F)c1)C(=O)NCc1ccc(OC)cc1` (stereo not shown) [Example 46, 2-(4-Cyano-3-trifluoromethyl-phenoxy)-pentanoic acid-4-methoxy-benzylamide] were, in that order, 103 nM and 638 nM.
The like results for `Cc1ccc(CCNC(=O)C(CC(C)C)Oc2ccc(C#N)c(C(F)(F)F)c2)cc1` (stereo not shown) [Example 47, 2-(4-Cyano-3-trifluoromethyl-phenoxy)-4-methyl-pentanoic acid-(2-p-tolyl-ethyl)amide] were, in that order, 144 nM and over 1000 nM.
The like results for `COc1ccccc1CCNC(=O)C(CC(C)C)Oc1ccc(C#N)c(C(F)(F)F)c1` (stereo not shown) [Example 48, 2-(4-Cyano-3-trifluoromethyl-phenoxy)-4-methyl-pentanoic acid-[2-(2-methoxyphenyl)-ethyl]-amide] were, in that order, 123 nM and over 1000 nM.
In the case of `Cc1cccc(CCNC(=O)C(CC(C)C)Oc2ccc(C#N)c(C(F)(F)F)c2)c1` (stereo not shown) [Example 49, 2-(4-Cyano-3-trifluoromethyl-phenoxy)-4-methyl-pentanoic acid-(2-m-tolyl-ethyl)amide], the IC50 is 75 nM in assay [1] (read-out: AR Binding IC50) and over 1000 nM in assay [2].
On to `CC(C)CC(Oc1ccc(C#N)c(C(F)(F)F)c1)C(=O)NCC(C)Oc1ccccc1` (stereo not shown) [Example 53, 2-(4-Cyano-3-trifluoromethyl-phenoxy)-4-methyl-pentanoic acid-(2-phenoxypropyl)-amide], for which the IC50 in assay [1] (read-out: AR Binding IC50) came out at 59 nM; in assay [2], 299 nM.
Turning to `CC(C)CC(Oc1ccc(C#N)c(C(F)(F)F)c1)C(=O)NC1CCc2ccccc21` (stereo not shown) [Example 54, 2-(4-Cyano-3-trifluoromethyl-phenoxy)-4-methyl-pentanoic acid indan-1-yl-amide], the figures for the half-inhibitory concentration (IC50) in assay [1] (read-out: AR Binding IC50) and in assay [2] were 70 nM and 836 nM, respectively.
With `CCCC(Oc1ccc(C#N)c(C(F)(F)F)c1)C(=O)NCC(C)Oc1ccccc1` (stereo not shown) [Example 55, 2-(4-Cyano-3-trifluoromethyl-phenoxy)-pentanoic acid-(2-phenoxy-propyl)-amide], the figures for the IC50 in assay [1] (read-out: AR Binding IC50) and in assay [2] were 182 nM and 393 nM, respectively.
Regarding `CCCC(Oc1ccc(C#N)c(C(F)(F)F)c1)C(=O)NCCOc1ccccc1` (stereo not shown) [Example 56, 2-(4-Cyano-3-trifluoromethyl-phenoxy)-pentanoic acid-(2-phenoxy-ethyl)-amide], the IC50 in assay [1] (read-out: AR Binding IC50) worked out at 157 nM; in assay [2], 790 nM.
In the case of `CCCC(Oc1ccc(C#N)c(C(F)(F)F)c1)C(=O)NC1CCc2ccccc21` (stereo not shown) [Example 57, 2-(4-Cyano-3-trifluoromethyl-phenoxy)-pentanoic acid indan-1-yl-amide], the figures for the IC50 in assay [1] (read-out: AR Binding IC50) and in assay [2] were 146 nM and 561 nM, respectively.
The matching figures for `COc1cccc(CCNC(=O)C(CC(C)C)Oc2ccc(C#N)c(C(F)(F)F)c2)c1` (stereo not shown) [Example 58, 2-(4-Cyano-3-trifluoromethyl-phenoxy)-4-methyl-pentanoic acid-[2-(3-methoxyphenyl)-ethyl]-amide]: 64 nM and over 1000 nM.
In the case of `CC(C)CC(Oc1ccc(C#N)c(C(F)(F)F)c1)C(=O)NCCc1c[nH]c2ccccc12` (stereo not shown) [Example 59, 2-(4-Cyano-3-trifluoromethyl-phenoxy)-4-methyl-pentanoic acid [2-(1H-indol-3-yl)ethyl]amide], the IC50 in assay [1] (read-out: AR Binding IC50) was 48 nM; in assay [2], 101 nM.
In the case of `CC(C)CC(Oc1ccc(C#N)c(C(F)(F)F)c1)C(=O)NCCc1ccc(O)cc1` (stereo not shown) [Example 61, 2-(4-Cyano-3-trifluoromethyl-phenoxy)-4-methyl-pentanoic acid-[2-(4-hydroxyphenyl)-ethyl]-amide], the IC50 turned out to be 86 nM in assay [1] (read-out: AR Binding IC50) and 341 nM in assay [2].
`CC(C)CC(Oc1ccc(C#N)c(C(F)(F)F)c1)C(=O)NCCCc1cccnc1` (stereo not shown) [Example 62, 2-(4-Cyano-3-trifluoromethyl-phenoxy)-4-methyl-pentanoic acid-(3-pyridin-3-ylpropyl)-amide]: the results for the IC50 in assay [1] (read-out: AR Binding IC50) and in assay [2] were 192 nM and over 1000 nM, respectively.
On to `CCCC(Oc1ccc(C#N)c(C(F)(F)F)c1)C(=O)NCCc1cccc(OC)c1` (stereo not shown) [Example 64, 2-(4-Cyano-3-trifluoromethyl-phenoxy)-pentanoic acid-[2-(3-methoxy-phenyl)ethyl]-amide], for which the figures for the IC50 in assay [1] (read-out: AR Binding IC50) and in assay [2] were 220 nM and over 1000 nM, respectively.
Consider `CCCC(Oc1ccc(C#N)c(C(F)(F)F)c1)C(=O)NCCc1c[nH]c2ccccc12` (stereo not shown) [Example 65, 2-(4-Cyano-3-trifluoromethyl-phenoxy)-pentanoic acid [2-(1H-indol-3-yl)ethyl]amide], for which the concentration for half-maximal inhibition (IC50) in assay [1] (read-out: AR Binding IC50) was determined as 33 nM; in assay [2] it was 64 nM.
As to `CCCC(Oc1ccc(C#N)c(C(F)(F)F)c1)C(=O)NCCc1ccc(O)cc1` (stereo not shown) [Example 66], the IC50 in assay [1] (AR Binding IC50 (nM)) was 151 nM; in assay [2], 77 nM.
Regarding `CC(C)CC(Oc1ccc(C#N)c(C(F)(F)F)c1)C(=O)NCC(c1ccccc1)N(C)C` (stereo not shown) [Example 68, 2-(4-Cyano-3-trifluoromethyl-phenoxy)-4-methyl-pentanoic acid (2-dimethylamino-2-phenyl-ethyl)-amide], the IC50 is 223 nM in assay [1] (read-out: AR Binding IC50) and over 1000 nM in assay [2].
For the compound `COc1ccc(CNC(=O)C(CC(C)C)Oc2ccc(C#N)c(C(F)(F)F)c2)cn1` (stereo not shown) [Example 72, 2-(4-Cyano-3-trifluoromethyl-phenoxy)-4-methyl-pentanoic acid-(6-methoxy-pyridin-3-yl-methyl)-amide], the 50% inhibitory concentration (IC50) came out at 82 nM in assay [1] (read-out: AR Binding IC50) and 251 nM in assay [2].
